Laboratory results: PubChem BioAssay AID2060888 (Molecular Pharmacology Branch, DTP, NCI, 2025)
pIC50: −log10 of the molar value. Each block holds one compound with its values, some of them ahead of it.

Tested on: 695427-040-R-J1-PDC complex spheroid viability
Assay: Anticancer human tumor 695427-040-R-J1-PDC patient-derived colon adenocarcinoma cell line growth inhibition [RAS]
Conditions: for pIC50: curve of first compound; for viability, T/C: stronger effect = lower value
Text: RAS pathway inhibitors in Combinations in Complex Spheroids
A high-throughput screen of multi-cell type tumor spheroids was designed to identify active combinations of RAS pathway inhibitors and targeted small molecules. Complex spheroids include a stromal component modeled by human endothelial cells (HUVEC) and fibroblasts modeled by human mesenchymal stem cells (MSCs). The concentration ranges selected for each drug and investigational agent were based upon clinically achievable concentrations if the clinical Cmax of the agent was known.
Compounds. The drugs and investigational agents: abemaciclib (NSC768073), cobimetinib (NSC768068), divarasib (GDC6063, NSC841802), docetaxel (NSC628503), GDC-1971 (RLY-1971, NSC841576), gemcitabine (NSC613327), inavolisib (NSC800729), ipatasertib (NSC767898), KB-0742 (NSC834161), MRTX-1133 (NSC836407), osimertinib (NSC779217), RMC-4630 (NSC839698), RMC-6236 (NSC851965), RMC-6291 (NSC852671), Ro-3306 (NSC812927), sapanisertib (NSC764658), SN-38 (NSC673596), staurosporine (NSC755774), SY5609 (NSC837396), and tovorafenib (DAY101, NSC766906), were obtained from the National Cancer Institute (NCI) Developmental Therapeutics Program Chemical Repository. The FDA-approved anticancer drug set is available from the NCI Developmental Therapeutics Program. […] The stock solutions were prepared in dimethyl sulfoxide (DMSO, Sigma-Aldrich, St. Louis, MO, cat. D2650) at 800-fold the tested concentration and stored at -70 degrees C prior to their use. All drugs and investigational agents were tested over a range starting from a high concentration at or near the clinical Cmax and decreasing in half-log increments. If the clinical Cmax for an agent had not been determined, the highest concentration tested was 10 microM.
Cell Culture. All cells were maintained in an incubator at 37 degrees C and 5% CO2 with 95% humidity. The PDC lines were cultured according to standard operating procedures established by the NCI PDMR. All PDCs were thawed and cultured in Matrigel-coated flasks prepared with a working solution of 1X Ham's F-12 nutrient mix, without supplementation (Invitrogen, Waltham, MA, cat. 11765054), 100 U/mL penicillin-streptomycin (Invitrogen, cat. 15140122), and 2.5% Matrigel (Corning Inc., Corning, NY, cat. 354248) for the first three passages. The 362531-283-R-J2-PDC and 782815-120-R-J1-PDC lines were cultured in 6C/Colon 1B media, which includes advanced DMEM/F-12 (Thermo Fisher Scientific, cat. 12634028), 10 mM HEPES (Thermo Fisher Scientific, cat. 15630080), 1X GlutaMAX supplement (Thermo Fisher Scientific, cat. 35050061), 0.1 mg/mL primocin (InvivoGen, San Diego, CA, cat. ant-pm-2), 10% defined fetal bovine serum, heat inactivated (HyClone Laboratories Inc., Logan, UT, cat. SH30070.03HI), 50% L-WRN conditioned media (ATCC, cat. CRL-3276), 1.25 mM N-Acetyl-L-cysteine (Sigma-Aldrich, cat. A9165), 10 mM nicotinamide (Sigma-Aldrich, cat. N0636), 1X B-27 supplement (Thermo Fisher Scientific, cat. 17504044), 1X N-2 supplement (Thermo Fisher Scientific, cat. 17502048), 50 ng/mL human EGF (Thermo Fisher Scientific, cat. PHG0311), and 10 microM Y-27632 dihydrochloride (Tocris Bioscience, cat. 1254). The K12877-001-R-J1-PDC line was cultured in 6I media, which includes all 6C/Colon 1B media plus 10 ng/mL human FGF-10 (PeproTech, cat. 100-26), 1 ng/mL human FGF-2 (PeproTech, cat. 100-18B), 1 µM prostaglandin E2 (Tocris Bioscience, cat. 2296), […] hydrocortisone (Sigma-Aldrich, cat. H4001), and […] bovine insulin (Sigma-Aldrich, cat. I6634). The K86415-001-R-J1-PDC line was cultured in 6D media, which includes all 6C/Colon 1B media components minus the L-WRN conditioned media. The 485176-168-R4-J1-PDC was cultured in PANC media, which includes all 6C/Colon 1B media plus 100 ng/mL human FGF-10 (PeproTech, cat. 100-26), 500 nM SB-431542 (Selleckchem, cat. S1067), and 10 nM gastrin (Tocris Bioscience, cat. 3006). […]

[1] = second compound 0.0316 µM, first compound 0.0316 µM
[2] = second compound 0.0316 µM, first compound 0.1 µM
[3] = second compound 0.0316 µM, first compound 0.316 µM
[4] = second compound 0.0316 µM, first compound 1 µM
[5] = second compound 0.1 µM, first compound 0.0316 µM
[6] = second compound 0.1 µM, first compound 0.1 µM
[7] = second compound 0.1 µM, first compound 0.316 µM
[8] = second compound 0.1 µM, first compound 1 µM
[9] = second compound 0.316 µM, first compound 0.0316 µM
[10] = second compound 0.316 µM, first compound 0.1 µM
[11] = second compound 0.316 µM, first compound 0.316 µM
[12] = second compound 0.316 µM, first compound 1 µM
[13] = second compound 1 µM, first compound 0.0316 µM
[14] = second compound 1 µM, first compound 0.1 µM
[15] = second compound 1 µM, first compound 0.316 µM
[16] = second compound 1 µM, first compound 1 µM
[17] = second compound 3.16 µM, first compound 0.0316 µM
[18] = second compound 3.16 µM, first compound 0.1 µM
[19] = second compound 3.16 µM, first compound 0.316 µM
[20] = second compound 3.16 µM, first compound 1 µM
[21] = second compound 10 µM, first compound 0.0316 µM
[22] = second compound 10 µM, first compound 0.1 µM
[23] = second compound 10 µM, first compound 0.316 µM
[24] = second compound 10 µM, first compound 1 µM
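Also: viability read after seven days of drug exposure.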
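For viability, T/C in this document: 100% = DMSO vehicle control viability.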

pIC50 (second compound 0.0316 µM): < 6.00
pIC50 (second compound 0.1 µM): < 6.00
pIC50 (second compound 0.316 µM): < 6.00
pIC50 (second compound 1 µM): < 6.00
pIC50 (second compound 3.16 µM): 7.12
pIC50 (second compound 10 µM): > 8.50
SMILES: Nc1ccn(C2OC(CO)C(O)C2(F)F)c(=O)n1 (centres undefined) + C#Cc1c(F)ccc2cc(O)cc(-c3ncc4c(N5CC6CCC(C5)N6)nc(OCC56CCCN5CC(F)C6)nc4c3F)c12
viability, T/C (second compound 0.0316 µM, first compound 0.00316 µM): 83.8%
viability, T/C (second compound 0.0316 µM, first compound 0.01 µM): 82.2%
viability, T/C [1]: 75%
viability, T/C [2]: 75.7%
viability, T/C [3]: 76.8%
viability, T/C [4]: 70.8%
viability, T/C (second compound 0.1 µM, first compound 0.00316 µM): 87.7%
viability, T/C (second compound 0.1 µM, first compound 0.01 µM): 75.5%
viability, T/C [5]: 81.9%
viability, T/C [6]: 68.8%
viability, T/C [7]: 78.4%
viability, T/C [8]: 67.2%
viability, T/C (second compound 0.316 µM, first compound 0.00316 µM): 85.2%
viability, T/C (second compound 0.316 µM, first compound 0.01 µM): 79.4%
viability, T/C [9]: 66.7%
viability, T/C [10]: 72.3%
viability, T/C [11]: 67%
viability, T/C [12]: 60.5%
viability, T/C (second compound 1 µM, first compound 0.00316 µM): 68%
viability, T/C (second compound 1 µM, first compound 0.01 µM): 63.4%
viability, T/C [13]: 69.5%
viability, T/C [14]: 59.6%
viability, T/C [15]: 59.2%
viability, T/C [16]: 55.7%
viability, T/C (second compound 3.16 µM, first compound 0.00316 µM): 57.9%
viability, T/C (second compound 3.16 µM, first compound 0.01 µM): 62.4%
viability, T/C [17]: 48.9%
viability, T/C [18]: 45.4%
viability, T/C [19]: 50.8%
viability, T/C [20]: 44.7%
viability, T/C (second compound 10 µM, first compound 0.00316 µM): 37.3%
viability, T/C (second compound 10 µM, first compound 0.01 µM): 34.8%
viability, T/C [21]: 33.2%
viability, T/C [22]: 36.4%
viability, T/C [23]: 33.4%
viability, T/C [24]: 33%

pIC50 (second compound 0.0316 µM): < 5.00
pIC50 (second compound 0.1 µM): < 5.00
pIC50 (second compound 0.316 µM): < 5.00
pIC50 (second compound 1 µM): < 5.00
pIC50 (second compound 3.16 µM): < 5.00
pIC50 (second compound 10 µM): > 7.50
SMILES: C[C@@H](NC(=O)c1ncnc(N)c1Cl)c1ncc(C(=O)Nc2cc(C(F)(F)F)c(Cl)cn2)s1 + C#Cc1c(F)ccc2cc(O)cc(-c3ncc4c(N5CC6CCC(C5)N6)nc(OCC56CCCN5CC(F)C6)nc4c3F)c12
viability, T/C [1]: 99.8%
viability, T/C [2]: 117%
viability, T/C [3]: 108%
viability, T/C [4]: 102%
viability, T/C (second compound 0.0316 µM, first compound 3.16 µM): 101%
viability, T/C (second compound 0.0316 µM, first compound 10 µM): 80.2%
viability, T/C [5]: 109%
viability, T/C [6]: 106%
viability, T/C [7]: 101%
viability, T/C [8]: 100%
viability, T/C (second compound 0.1 µM, first compound 3.16 µM): 94.3%
viability, T/C (second compound 0.1 µM, first compound 10 µM): 70.9%
viability, T/C [9]: 99.8%
viability, T/C [10]: 95.1%
viability, T/C [11]: 101%
viability, T/C [12]: 93%
viability, T/C (second compound 0.316 µM, first compound 3.16 µM): 81.6%
viability, T/C (second compound 0.316 µM, first compound 10 µM): 70.3%
viability, T/C [13]: 87.9%
viability, T/C [14]: 83.2%
viability, T/C [15]: 88.5%
viability, T/C [16]: 84.1%
viability, T/C (second compound 1 µM, first compound 3.16 µM): 76.3%
viability, T/C (second compound 1 µM, first compound 10 µM): 57.2%
viability, T/C [17]: 59.2%
viability, T/C [18]: 60.5%
viability, T/C [19]: 65.9%
viability, T/C [20]: 63.9%
viability, T/C (second compound 3.16 µM, first compound 3.16 µM): 56.9%
viability, T/C (second compound 3.16 µM, first compound 10 µM): 42.5%
viability, T/C [21]: 35.1%
viability, T/C [22]: 34.4%
viability, T/C [23]: 42.2%
viability, T/C [24]: 37.9%
viability, T/C (second compound 10 µM, first compound 3.16 µM): 41.3%
viability, T/C (second compound 10 µM, first compound 10 µM): 27.8%
